From the METLIN SMRT retention time set (Domingo-Almenara et al. 2019) come the findings set out here.

SMILES strings stand for the structures.

This data set in a line: gradient 5% acetonitrile 3 min, to 50% in 2 min, to 85% in 15 min, held 3 min, 100 µL/min. Particulars: column: Zorbax Extend-C18 2.1 x 50 mm; eluents: water / acetonitrile, 0.1% formic acid. In a few lines: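 The system's dead and dwell volumes were 40 μL and 900 μL, with a Zorbax Extend-C18 column (2.1 × 50 mm, 1.8 μm) run at 100 μL/min in water and acetonitrile containing 0.1% formic acid each. Pure standards were analyzed in mixtures of ~100 molecules by HPLC–quadrupole time-of-flight mass spectrometry in positive and negative ionization mode. Retention time was assigned from computationally picked, manually inspected adduct peaks.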
The compound `O=C(NCc1cccs1)C1CCN(c2cc(-n3ccnc3)ncn2)CC1` showed an RP-LC retention time of 564 s. As to `COc1cc(OC)cc(C(=O)N2CCC3(C2)C(=O)N(C)c2ccccc23)c1` (stereo not given), the RP-LC retention time worked out at 770 s. In turn, `O=C(Nc1ccc(F)cc1Cl)c1c(O)c2cccnc2n(Cc2ccccc2)c1=O` yielded an RP-LC retention time of 1240 s. Turning to `O=C(Cc1ccsc1)Nc1ccc2ncnc(N3CCCCC3)c2c1`, the RP-LC retention time is 666 s. As for `CN1CCN(CCCNC(=O)c2ccccc2NC(=O)C2=CSCCO2)CC1`, the RP-LC retention time came to 878 s. In the case of `CCOc1ccc(-c2noc(CN3C(=O)C(C)Oc4ccccc43)n2)cc1OC` (stereo not given), the RP-LC retention time amounted to 1040 s. `O=C(C1=NN(CCc2ccccc2)c2ccccc2S1(=O)=O)N1CCCC1` showed an RP-LC retention time of 857 s. Next, `O=C1[C@H]2CN(Cc3cc(F)cc(F)c3)C[C@H]2C(=O)N1CCc1ccccc1`: 957 s; `Cn1cc(-c2ccncc2)cc1C(=O)NCc1ccc(F)cc1Cl`: 653 s. `Cc1ccccc1S(=O)(=O)N1CCC2(CC1)CC(OCc1ccccc1)CCO2` (stereo not given) registered an RP-LC retention time of 1210 s. Compound `CC(C(=O)Nc1nc(-c2ccccc2)cs1)N1C(=O)C2C3C=CC(C3)C2C1=O` (stereo not given) came in with an RP-LC retention time of 955 s.

`Cc1ccc(NC(=O)N2CCC(n3c(C(F)(F)F)nc4cccnc43)CC2)cc1` gave an RP-LC retention time of 856 s.

On to `COc1cccc(CN2CCC(N3C(=O)C4(CCCCC4)C3c3ccncc3)CC2)c1OC` (stereo not given), for which the RP-LC retention time was 601 s. For `CCOC(=O)c1c(CN2CCOCC2)n(C)c2cc(-c3cccnc3)c3c(c12)CN(C)CO3`, the RP-LC retention time was 784 s. The compound `O=S(=O)(c1ccccc1C(F)(F)F)N1CCc2nc(-c3ccc(F)cc3)ncc2C1` gave an RP-LC retention time of 1150 s. To `COCCN1CCC(CNC(=O)Cc2cccc3ccccc23)CC1` belongs 561 s; to `CCCNC(=O)C1CCN(c2ccc(SCC(=O)Nc3cccc(Cl)c3C)nn2)CC1`, 678 s; to `Cc1ccc(C)c2c(=O)c3c([nH]c12)CCN(CC(=O)Nc1ccc(F)cc1)C3`, 634 s. `Cc1cc(Oc2ncnc3c2cnn3-c2ccc(Cl)cc2)ccc1[N+](=O)[O-]` had an RP-LC retention time of 1270 s. `O=C1NC2(CCN(C(=O)Nc3ccc4c(c3)OCO4)CC2)N=C1c1ccccc1`: the RP-LC retention time is 746 s. Consider `O=C1COc2cc(S(=O)(=O)N3CCC(C(=O)N4CCc5ccccc54)CC3)c(Cl)cc2N1`, for which the RP-LC retention time was 844 s.

`O=C(c1noc2c1CCCCC2)N1CCN(c2ccccn2)CC1` showed an RP-LC retention time of 632 s. On to `O=C(NCc1ccccc1C(F)(F)F)C1CCN(c2cncnc2N2CCOCC2)CC1`, for which the RP-LC retention time was 644 s. On to `O=C(COc1cccc2ccc(N3CCOCC3)nc12)Nc1ccc(OC(F)(F)F)cc1`, for which the RP-LC retention time is 703 s. `CCCCc1nnc2sc(COc3ccc(C)c(C)c3)nn12` came in with an RP-LC retention time of 1120 s.

The compound `COc1cccc(-c2nc3ccc(Cl)cn3c2Nc2ccc(Cl)cc2)c1` returned an RP-LC retention time of 873 s. The compound `CC(O)(CNC(=O)c1cccc(C(F)(F)F)c1)c1ccccc1` (stereo not given) registered an RP-LC retention time of 808 s. On to `CCNC(=O)CN1CCN(Cc2ccccc2F)C1=O`, for which the RP-LC retention time was determined as 658 s.

In turn, `CCN1C(=O)c2ccccc2Oc2ccc(C(=O)NCc3cccc(OC)c3)cc21` came in with an RP-LC retention time of 921 s. `COc1ccc(Cc2nc(-c3cccc(-c4ccn[nH]4)c3)no2)c(Cl)c1` yielded an RP-LC retention time of 1000 s.

On to `CCN(c1ccccc1)S(=O)(=O)c1cc(-c2[nH]ncc2C(=O)N2CCCCC2)oc1C`, for which the RP-LC retention time is 822 s. Compound `O=C1CCCN1c1ccc(Cn2cc(-c3nc(-c4cccc(F)c4)no3)ccc2=O)cc1` displayed an RP-LC retention time of 608 s. In turn, `Cc1cccc(S(=O)(=O)N2CCC(CN3CCCCCC3)CC2)c1` showed an RP-LC retention time of 672 s. Turning to `O=c1c(S(=O)(=O)N2CCCCCC2)cccn1Cc1ccc(F)cc1`, the RP-LC retention time stood at 933 s. `CCn1cc(C(=O)Nc2ccc(Cl)cc2)c2cccnc21` registered an RP-LC retention time of 931 s. The compound `O=C(Cn1c(=O)c2cccn2c2ccccc21)NCCCc1ccccc1` returned an RP-LC retention time of 874 s. Turning to `COc1ccc(OC)c(NC(=O)CN2C(=O)C(C)(C)c3cc(C)ccc32)c1`, the RP-LC retention time came to 915 s.

On to `CN(C(=O)C1=Cc2ccccc2OC=C1)c1ccccc1`, for which the RP-LC retention time was 1020 s. As to `Cc1nc(-c2ccncc2)nc2c1CC(=O)N2C1CCCC1`, the RP-LC retention time amounted to 703 s. In turn, `CCC1CN(C(=O)N2CCC(C(=O)NCCCN3CCN(C)CC3)CC2)c2ccccc2O1` (stereo not given) showed an RP-LC retention time of 592 s.

Compound `CCN1C(=O)C2(CCN(C(=O)c3c(C)noc3C)CC2)c2ccccc21` yielded an RP-LC retention time of 785 s. Compound `COc1ccc2c(c1)c1ncn(Cc3nc(C4CC4)no3)c(=O)c1n2Cc1c(F)cccc1Cl` returned an RP-LC retention time of 1070 s. As for `COc1ccc(CNC(=O)N2CCC(N3CCN(Cc4ccccc4)C(=O)C3=O)CC2)cc1`, the RP-LC retention time was found to be 702 s. In turn, `CCc1cc(N2CCN(C(=O)COc3ccccc3OC)CC2)nc2nncn12` returned an RP-LC retention time of 601 s. Next, `Cc1nn(C(C)C(=O)NCCCOC(C)C)c(=O)c2c(C)n(-c3ccccc3)nc12` (stereo not given): 823 s. `Cc1nn(C)cc1CN(C)C(=O)COc1ccc(NC(=O)C2CC2)cn1` gave an RP-LC retention time of 604 s. Next, `COc1cc(NC(=O)Nc2c(-c3cccnc3)[nH]c3ccccc23)cc(OC)c1`: 679 s; `O=C(NCc1ccc(F)cc1)c1nnc(-c2ccc(S(=O)(=O)N3CCCC3)cc2)o1`: 888 s. The compound `COc1ccc(NC(=O)N2CCC3(CC2)NC(=O)c2cc(Cl)ccc2N3C)cc1` gave an RP-LC retention time of 753 s. For `OC1(c2ccccn2)CCOC2(CCN(Cc3ccc(F)cc3Cl)CC2)C1` (stereo not given), the RP-LC retention time amounted to 570 s. For `Cc1ccc(-c2nc(C3CC(=O)N(c4ccc(F)c(Cl)c4)C3)no2)cc1` (stereo not given), the RP-LC retention time was found to be 1160 s. Next, `Cc1ccc(Nc2c(-c3ccc(C)cc3)nc3ncccn23)cc1`: 802 s; `CCc1ccc(CNC(=O)C2CCN(C(=O)c3ncn4c3COC(c3ccc(F)cc3)C4)CC2)cc1` (stereo not given): 846 s. Take `CC(C)c1ccc(NC(=O)Cn2cccc2-c2nnc(C3CCC3)o2)cc1`: the RP-LC retention time was 1060 s. On to `NC(=O)c1cn(Cc2c(F)cccc2F)nn1`, for which the RP-LC retention time came to 684 s. As for `CN(C(=O)Cn1cnc2c(-c3ccccc3)csc2c1=O)c1ccccc1`, the RP-LC retention time was found to be 911 s. `O=C(Cc1nnc(-c2ccc3ncccc3c2)o1)NC1CCCCCC1` registered an RP-LC retention time of 807 s. Turning to `CCc1nnc(-c2coc(S(=O)(=O)N3CCC(N4CCCCC4)CC3)c2)o1`, the RP-LC retention time worked out at 607 s. In turn, `O=C(CN1c2ccc(Br)cc2-c2ccccc2S1(=O)=O)NCc1cccnc1` showed an RP-LC retention time of 686 s.

The compound `CCCn1cc(S(=O)(=O)NCc2cccs2)c2cccnc21` yielded an RP-LC retention time of 833 s.

On to `CC1CCN(C(=O)C2=NN(C(C)C)c3cc(Cl)ccc3S2(=O)=O)CC1`, for which the RP-LC retention time stood at 1020 s.

`Cn1cc2nc(SCC(=O)Nc3ccc(Br)cc3)n(CC3CC3)c(=O)c2n1` gave an RP-LC retention time of 905 s. `CCn1cc(CCN2CCN(C(=O)Cc3cccs3)CC2)c2cccnc21` returned an RP-LC retention time of 590 s.

In turn, `CC(C(=O)N1CCC(c2cc(N)on2)CC1)c1ccccc1` (stereo not given) returned an RP-LC retention time of 722 s. `O=C(CS(=O)Cc1ccco1)NC/C=C\COc1cc(CN2CCCCC2)ccn1` (stereo not given) showed an RP-LC retention time of 632 s. Regarding `COc1ccccc1CNC(=O)c1cn2cc(C)ccc2n1`, the RP-LC retention time stood at 681 s. For the compound `CN(C(=O)Cn1cnc2nc3c(cc2c1=O)CCCC3)c1ccccc1F`, the RP-LC retention time turned out to be 722 s.

In turn, `CCn1c(=O)sc2cc(S(=O)(=O)N3CCC(C(=O)NCc4ccccc4)CC3)ccc21` showed an RP-LC retention time of 845 s. The compound `CCn1c(=O)c(C)nc2cc(-c3noc(C(C)NC(=O)c4ccco4)n3)ccc21` (stereo not given) gave an RP-LC retention time of 866 s. Regarding `CCCNS(=O)(=O)c1cc2n(c1)CCCN(C(C)C)C2=O`, the RP-LC retention time was determined as 678 s. In turn, `O=C(Nc1c(F)cccc1F)N1CCc2nc(-c3ccc(F)cc3)ncc2C1` showed an RP-LC retention time of 932 s. To `COCCCNC(=O)c1ccc2c(c1)CCCN2S(C)(=O)=O` belongs 667 s; to `CCc1ccc(S(=O)(=O)N2CCC3(CC2)NCCN=C3NCc2cccc(OC)c2)cc1`, 775 s; to `COc1ccc(NC(=O)c2cn3c(n2)CSCC3)c(C)c1`, 674 s.

With `C#CC(c1ccccc1)(c1ccccc1)n1ccnc1`, the RP-LC retention time came to 739 s. With `Cc1ccc(CNC(=O)Cn2cccc(-c3nc(-c4ccc(Br)cc4)no3)c2=O)cc1`, the RP-LC retention time is 1030 s. To `COc1ccc(C(=O)CSc2nc(CC(=O)NCc3cccnc3)cs2)cc1` belongs 589 s. The compound `NC1CC1c1ccccc1` (stereo not given) had an RP-LC retention time of 621 s. To `CC1CCN(c2nc(C(=O)N(C)c3ccccc3)nc3c2cnn3C)CC1` belongs 864 s; to `CC(C)C(=O)Nc1ccc(-n2cnc(C(=O)NCc3ccc(F)cc3)c2)nc1`, 753 s.
